{"source": "patent US8637038B2", "about": "“Methods for inhibiting allograft rejection” (Rigel Pharmaceuticals, Inc., priority 2011, dated 2014)", "key": {"JAK1/3 [1]": {"tested_on": "JAK1/3", "experiment": "IL-2-dependent human primary T cell proliferation", "format": "cell-based", "description": "(§1) The activity of Compound III and Compound I was assessed in a panel of cell-based assays. Compound III and Compound I are selective inhibitors of JAK1/3-dependent signaling. Data for a non-selective JAK inhibitor (Compound IV) is shown for reference. Mixed lymphocyte reactions (MLRs) were performed by incubating freshly prepared naive human peripheral blood lymphocytes from one donor with CD80+/CD86+ mature Dendritic Cells derived from a different donor for 5 days. The percentage of CD3+/CD71+ (anti-CD3-APC, Clone HIT3a, anti-CD 71-FITC, Clone M-A712; BD Biosciences, San Jose, Calif.) proliferating cells was assessed by fluorescence-activated cell sorting (FACS; BD Bioscience). Interleukin-2 (IL-2)-dependent human primary T cell proliferation was assessed using CellTiter-Glo® Luminescent Cell Viability Assay (Promega, Madison, Wis.). STAT phosphorylation induced by different cytokines in human primary T cells was measured by intracellular FACS analysis (anti-pY694-STAT5 AlexaFluor488, anti-pY701-STAT1 AlexaFluor488, and anti-pY693-STAT4 AlexaFluor488; BD Biosciences). […] Interferon-γ (IFN-γ) signaling was assessed in the U937 monocytic cell line by measuring ICAM-1 surface expression by FACS (ICAM-1-APC, BD Bioscience)."}, "JAK2/Tyk2": {"tested_on": "JAK2/Tyk2", "experiment": "IL-12 T cell phospho-STAT4", "format": "cell-based, human", "conditions": "for EC50: Homo sapiens, T-cell, read-out: IL-12 T cell phospho-STAT4 EC50; for inhibition of JAK2/Tyk2-dependent phosphorylation of Stat4 in response to IL-12: human primary T-cells", "description": "The activity of Compound III and Compound I was assessed in a panel of cell-based assays. Compound III and Compound I are selective inhibitors of JAK1/3-dependent signaling. Data for a non-selective JAK inhibitor (Compound IV) is shown for reference. Mixed lymphocyte reactions (MLRs) were performed by incubating freshly prepared naive human peripheral blood lymphocytes from one donor with CD80+/CD86+ mature Dendritic Cells derived from a different donor for 5 days. The percentage of CD3+/CD71+ (anti-CD3-APC, Clone HIT3a, anti-CD 71-FITC, Clone M-A712; BD Biosciences, San Jose, Calif.) proliferating cells was assessed by fluorescence-activated cell sorting (FACS; BD Bioscience). Interleukin-2 (IL-2)-dependent human primary T cell proliferation was assessed using CellTiter-Glo® Luminescent Cell Viability Assay (Promega, Madison, Wis.). STAT phosphorylation induced by different cytokines in human primary T cells was measured by intracellular FACS analysis (anti-pY694-STAT5 AlexaFluor488, anti-pY701-STAT1 AlexaFluor488, and anti-pY693-STAT4 AlexaFluor488; BD Biosciences). STAT phosphorylation induced by different cytokines was performed in whole blood after red blood cell lysis (Lyse/Fix buffer, BD Biosciences) and methanol permeabilization. Interferon-γ (IFN-γ) signaling was assessed in the U937 monocytic cell line by measuring ICAM-1 surface expression by FACS (ICAM-1-APC, BD Bioscience)."}, "JAK2 [2]": {"tested_on": "JAK2", "experiment": "EPO-dependent survival of cultured human erythroid progenitor cells (CHEP)", "format": "cell-based", "conditions": "for EC50: Homo sapiens, Erythroid progenitor cell, read-out: EPO CHEP Survival EC50", "description": "(§2) The erythropoietin (EPO)-dependent survival of cultured human erythroid progenitor cells (CHEPs) was determined using CellTiter-Glo® Luminescent Cell Viability Assay (Promega). Human primary T cell activation was assessed by measuring IL-2 production by ELISA (R&D Systems, Minneapolis, Minn., USA) following plate-bound anti-CD3 and anti-CD28 stimulation (Anti-Human CD3; BD Biosciences; Anti-Human CD28; Immunotech; Prague, Czech Republic). The enzymatic activity of tryptase released by human cultured mast cells (CHMCs) upon stimulation with IgE was quantified by cleavage of the synthetic fluorescent peptide substrate Z-Ala-Lys-Arg-7-amino-4-methylcoumarin (MP Biomedicals, Solon, Ohio, USA) in tryptase buffer. B-cell receptor-dependent Erk phosphorylation was measured in Ramos cells by intracellular FACS (anti-pT202/pY204-ERK1/2-AlexaFluor488; BD Biosciences). Cell proliferation assays were performed using A549 epithelial cells and H1299 lung carcinoma cells using nuclear staining to measure cell numbers (4′6-diamidino-2-phenylindole, dihydrochloride (DAPI; Invitrogen, Darmstadt, Germany))."}, "Lck/AZP70": {"tested_on": "Lck/AZP70", "experiment": "Anti-CD3/CD28 T cell IL-2 production", "format": "cell-based", "conditions": "Homo sapiens", "description": "as §2"}, "Syk": {"tested_on": "Syk", "experiment": "Anti-IgM Ramos phospho-Erk", "format": "cell-based", "conditions": "Homo sapiens, read-out: Anti-IgM Ramos phospho-Erk EC50", "description": "as §2"}, "A549 epithelial cells": {"tested_on": "A549 epithelial cells", "experiment": "A549 proliferation", "format": "cell-based", "conditions": "Homo sapiens", "description": "as §2"}, "JAK1/3 [3]": {"tested_on": "JAK1/3", "experiment": "IL-2 whole blood lymphocytes phospho-STAT5", "format": "cell-based", "conditions": "Lymphocyte, read-out: IL-2 whole blood lymphocytes phospho-STAT5 EC50", "description": "as §1"}, "JAK1/Tyk2": {"tested_on": "JAK1/Tyk2", "experiment": "IFN-γ whole blood lymphocytes phospho-STAT1", "format": "cell-based", "conditions": "Lymphocyte, read-out: IFN-γ whole blood lymphocytes phospho-STAT1 EC50", "description": "as §1"}, "JAK1/2/Tyk2": {"tested_on": "JAK1/2/Tyk2", "experiment": "IL-6 whole blood lymphocytes phospho-STAT3", "format": "cell-based", "conditions": "Lymphocyte, read-out: IL-6 whole blood lymphocytes phospho-STAT3 EC50", "description": "as §1"}, "JAK2 [4]": {"tested_on": "JAK2", "experiment": "GM-CSF whole blood granulocytes phospho-STAT5", "format": "cell-based", "conditions": "read-out: GM-CSF whole blood granulocytes phospho-STAT5 EC50", "description": "as §1"}, "[5]": {"tested_on": "Lew recipients of heterotopic BN heart transplants", "experiment": "Five-day heart allograft study: donor-specific IgM antibodies by flow cytometry", "format": "in vivo, rat", "conditions": "LD and HD groups; five days; p<0.001", "description": "Compound I and Compound III were provided by Rigel (South San Francisco, Calif.) and Tacrolimus was provided by Astellas (Munich, Germany). All drugs were administrated orally each in two different concentrations: Compound I LD (15 mg/kg BID; n=6) and HD (60 mg/kg BID; n=6); Compound III LD (5 mg/kg BID; n=6) and HD (20 mg/kg BID; n=6); Tac LD (1 mg/kg QD; n=6) and HD (4 mg/kg QD; n=6). Administration of all drugs was performed every day at the same time points. Tacrolimus was applied only once a day (QD) every 24 hours. During administration of Compound I (BID) and Compound III (BID) a 12 hour pause was kept in between each drug application.\nLew recipients of heterotopic BN heart transplants were randomly assigned to their group. Animals were either left untreated (groups 1 and 2; see Table 1,5-day study) or received their group specific medication (groups 3-8; see Table 1,5-day study) by oral application. An untreated syngeneic transplant group Lew-Lew was generated as control.\nDonor splenocytes were isolated and erythrocytes were lysed using the ACK buffer (Lonza, Walkersville, Md.). Sera from recipient rats were decomplemented and equal amounts of sera and splenocyte suspensions (5×10^6 cells/ml) were incubated for 30 minutes at room temperature. IgM antibodies were stained by incubation of the cells with a conjugated mouse antibody specific for the Fc-portion of rat IgM (Monoclonal Anti-rat IGM, Clone RTM-32, Sigma) followed by incubation with a 488-conjugated secondary antibody (Invitrogen). Cells were washed with PBS, fixed with 2% paraformaldehyde (Science Services), and analyzed on a FACSCalibur™ system (BD Biosciences). Fluorescence data were expressed as mean fluorescence intensity (MFI) using Flowjo software (Tree Star, Inc., Ashland, Oreg.)."}}, "note": "Where two headings read alike, the source gives them in different places.", "data": [{"compound": "COc1cc(Nc2ncc(C)c(Nc3ccc4oc(=O)[nH]c4c3)n2)cc(C)c1F", "note": "[Compound I, 5-(2-(4-fluoro-3-methoxy-5-methylphenylamino)-5-methylpyrimidin-4-ylamino)benzo[d]oxazol-2(3H)-one]", "values": [{"measurement": "EC50", "setting": "JAK1/3 [1]; upstream kinases JAK1/3, read-out: IL-2 T cell proliferation EC50", "value": "21 ± 7", "unit": "nM"}, {"measurement": "EC50", "setting": "JAK2/Tyk2; upstream kinases JAK2/Tyk2", "value": 463, "unit": "nM"}, {"measurement": "inhibition of JAK2/Tyk2-dependent phosphorylation of Stat4 in response to IL-12", "setting": "JAK2/Tyk2", "value": "only weakly inhibited"}, {"measurement": "inhibition of JAK2-dependent CHEP differentiation and survival in response to EPO", "setting": "JAK2 [2]", "value": "limited inhibition"}, {"measurement": "EC50", "setting": "JAK2 [2]; upstream kinase JAK2", "value": "490 ± 246", "unit": "nM"}, {"measurement": "EC50", "setting": "Lck/AZP70; upstream kinases Lck/AZP70, read-out: Anti-CD3/CD28 T cell IL-2 production EC50", "value": "2860 ± 118", "unit": "nM"}, {"measurement": "EC50", "setting": "Syk; upstream kinase Syk", "value": "1440 ± 586", "unit": "nM"}, {"measurement": "EC50", "setting": "A549 epithelial cells; A549, upstream kinases Multiple, read-out: A549 proliferation EC50", "value": "1860 ± 251", "unit": "nM"}, {"measurement": "EC50", "setting": "JAK1/3 [3]; whole blood, JAK1/3", "value": "416 ± 152", "unit": "nM"}, {"measurement": "EC50", "setting": "JAK1/Tyk2; whole blood, JAK1/Tyk2", "value": "153 ± 33", "unit": "nM"}, {"measurement": "EC50", "setting": "JAK1/2/Tyk2; whole blood, JAK1/2/Tyk2", "value": "3830 ± 1520", "unit": "nM"}, {"measurement": "EC50", "setting": "JAK2 [4]; whole blood, JAK2", "value": "32700 ± 9510", "unit": "nM"}, {"measurement": "donor-specific IgM antibodies (DSA) vs. no medication", "setting": "[5]", "value": "significant suppression"}]}, {"compound": "COc1cc(Nc2ncc(C)c(Nc3ccc4oc(=O)[nH]c4c3)n2)cc(C)c1C", "note": "[Compound III, 5-(2-(3-methoxy-4,5-dimethylphenylamino)-5-methylpyrimidin-4-ylamino)benzol[d]oxazol-2-(3H)-one]", "values": [{"measurement": "EC50", "setting": "JAK1/3 [1]; read-out: IL-2 T cell proliferation EC50", "value": "30 ± 13", "unit": "nM"}, {"measurement": "EC50", "setting": "JAK2/Tyk2", "value": "1560 ± 971", "unit": "nM"}, {"measurement": "inhibition of JAK2/Tyk2-dependent phosphorylation of Stat4 in response to IL-12", "setting": "JAK2/Tyk2", "value": "only weakly inhibited"}, {"measurement": "inhibition of JAK2-dependent CHEP differentiation and survival in response to EPO", "setting": "JAK2 [2]", "value": "limited inhibition"}, {"measurement": "EC50", "setting": "JAK2 [2]", "value": "1110 ± 339", "unit": "nM"}, {"measurement": "EC50", "setting": "Lck/AZP70; read-out: Anti-CD3/CD28 T cell IL-2 production EC50", "value": "19700 ± 2900", "unit": "nM"}, {"measurement": "EC50", "setting": "Syk", "value": "1280 ± 190", "unit": "nM"}, {"measurement": "EC50", "setting": "A549 epithelial cells; A549, read-out: A549 proliferation EC50", "value": "5420 ± 3040", "unit": "nM"}, {"measurement": "EC50", "setting": "JAK1/3 [3]", "value": "887 ± 295", "unit": "nM"}, {"measurement": "EC50", "setting": "JAK1/Tyk2", "value": "511 ± 279", "unit": "nM"}, {"measurement": "EC50", "setting": "JAK1/2/Tyk2", "value": "6690 ± 1610", "unit": "nM"}, {"measurement": "EC50", "setting": "JAK2 [4]", "value": "> 50000", "unit": "nM"}, {"measurement": "donor-specific IgM antibodies (DSA) vs. no medication", "setting": "[5]", "value": "significant suppression"}]}]}
